Assay results from patent publication US9661870B2, “Nanogel comprising water-soluble active ingredients” (DSM IP ASSETS B.V., priority 2012, dated 2017).

Legend:
[1] = cited from earlier work
[2] = Interaction of folic acid with soy protein, soy polysaccharide or complex nanogel at pH 7.4; free folic acid isolated by ultrafiltration; assay type: physicochemical; conditions: FA concentration in feed 0.5 mM
Description: Considering the solubility of folic acid, the interaction at pH 7.4 was investigated. The individual protein solution, individual polysaccharide solution, and the protein/polysaccharide complex nanogel solution were adjusted to pH 7.4 first. Then the folic acid, dissolved in 10 mM phosphate buffer pH 7.4, was added and the mixture was incubated under stirring at room temperature overnight. The final protein concentration in the mixture was 4 mg/ml and polysaccharide concentration was 12 mg/ml. The free folic acid in the mixture was isolated by a high-flow ultrafiltration membrane (cutoff molecular weight 3 kDa, MicroconYM-3, Millipore), and was collected in the ultrafiltrate. Individual folic acid solution was also passed through the ultrafiltration membrane; 97% of the folic acid (Table 1) in the ultrafiltrate confirms the recovery of the folic acid. The individual protein, individual polysaccharide, and protein/polysaccharide complex nanogel solutions were also passed through the ultrafiltration membrane; their UV spectra of the ultrafiltrates (FIG. 1) show the absorbance at UV region, indicating small peptides in the ultrafiltrates. The FA concentration in the ultrafiltrate was calculated by deducting the 280 nm absorbance shown in FIG. 1 from the 280 nm absorbance of the ultrafiltrate.

[3] = UV degradation of folic acid (450 nm fluorescence before and after UV radiation); assay type: physicochemical; conditions: for Degradation degree / IUV/I (ratio of FA fluorescence intensity after UV radiation to before): UV radiation pH 7.4
Source text: As mentioned above, folic acid is sensitive to UV radiation. Because of intramolecular fluorescence quenching, folic acid has an extremely low fluorescence quantum yield, approximately 0.005. Pterins, which is formed after the cleavage of the C9-N10 bond in the folic acid molecule, has an increased fluorescence peak around 445 nm. The fluorescence quantum yield of 6-formyl pterin (FPT) is nearly 0.1 and that of pterin-6-carboxylic acid (PCA) is about 0.2. The fluorescence in the region of 445 nm increases with the formation of FPT as a result of the C9-N10 bond cleavage followed by the photo-induced conversion of FPT to PCA [M. K. Off et al., Journal of Photochemistry and Photobiology B: Biology 80 (2005) 47-55].
The UV degradation of folic acid was investigated in this study. The folic acid/protein/polysaccharide nanogel solution at pH 4.0 containing 0.25 or 0.5 mM folic acid was placed in a 7 ml glass bottle at a distance of 30 cm from a UV radiometer (500 w, peak A=365 nm) for 1 h. Individual folic acid dissolved in 10 mM pH 7.4 phosphate buffer with FA concentration of 0.25 or 0.5 mM was also investigated. The mixture of 5 mg/ml protein and 0.25 mM folic acid at pH 7.4, and the mixture of 15 mg/ml polysaccharide and 0.25 mM folic acid at pH 7.4 were also investigated. After the UV radiation, the folic acid/protein/polysaccharide nanogel solution was adjusted to pH 7.4 to release folic acid. The released folic acid in the solution was isolated by ultrafiltration and was analyzed as described below. After 10 and 20 times dilution for 0.25 and 0.5 mM folic acid, respectively, the 450 nm fluorescence intensity of the ultrafiltrate excited at 348 nm was measured.
For individual folic acid solution, after the UV radiation, the fluorescence intensity at 450 nm increases 89 and 85 times when folic acid concentration was 0.25 and 0.5 mM, respectively. The average 87 times of the increase for the fluorescence intensity after the UV radiation indicates the degradation of the folic acid inside the glass bottle. […] Compared with the individual folic acid, the degradation of folic acid reduces to 30% and 22% in the presence of polysaccharide and protein at pH 7.4, respectively. Folic acid/protein/polysaccharide nanogels can effectively protect the folic acid from the degradation at pH 4.0; only 12% of the loaded folic acid was degraded after the same UV radiation. […] The released and isolated folic acid from folic acid/protein/polysaccharide nanogels was radiated by UV light. After the same radiation, the folic acid fluorescence changed as the folic acid solution prepared at pH 7.4 directly.
The UV degradation of folic acid was investigated. Compared with the individual folic acid, the degradation of folic acid reduces to 19% in the presence of pea protein (Table 4). Folic acid/pea protein/polysaccharide nanogels can effectively protect the folic acid from the degradation at pH 4.0; only 13% of the loaded folic acid was degraded after the same UV radiation.

[4] = Table 3, FA in feed 0.25 mM, UV 1 h
[5] = Table 3, FA in feed 0.5 mM, UV 1 h

In the case of O=C(O)CCCC[C@@H]1SC[C@@H]2NC(=O)N[C@@H]21 [biotin], the pKa [1] is listed as 5.33.
In the case of Nc1nc2ncc(CNc3ccc(C(=O)N[C@@H](CCC(=O)O)C(=O)O)cc3)nc2c(=O)[nH]1 [FA, folic acid], the “FA concentration in ultrafiltration” value [2] is reported as 0.485 ± 0.01 mM, the “Recovered FA in ultrafiltration” value [2] is reported as 97 ± 2% and the “Recovered FA in ultrafiltration” value ([2]; listed as folic acid) is reported as 97%. The pKa [1] was 4.7, the Degradation degree [3, 4] was 100% and the “IUV/I (ratio of FA fluorescence intensity after UV radiation to before)” value [3, 4] was 89 ± 3. The “IUV/I (ratio of FA fluorescence intensity after UV radiation to before)” value ([3]; Table 3, FA in feed 0.25 mM, UV 1 h, listed as folic acid) was 89, the Degradation degree [3, 5] was 100% and the “IUV/I (ratio of FA fluorescence intensity after UV radiation to before)” value [3, 5] was 85 ± 2. For the same compound, the “IUV/I (ratio of FA fluorescence intensity after UV radiation to before)” value ([3]; Table 3, FA in feed 0.5 mM, UV 1 h, listed as folic acid) was 85, the Degradation degree ([3]; Table 4, FA in feed 0.25 mM) was 100% and the “IUV/I (ratio of FA fluorescence intensity after UV radiation to before)” value ([3]; Table 4, FA in feed 0.25 mM) was 91. The “average increase of the fluorescence intensity after the UV radiation” value ([3]; average of 0.25 and 0.5 mM FA, pH 7.4) was 87 times.
